Experimental findings from US12319709B2, “Diaryl trehalose compounds and uses thereof” (THE UNIVERSITY OF MONTANA, priority 2018, dated 2025) are described below.

In the assay the test system is RAW264.7 cells. As to the kind of experiment: Cytokine (TNFα) response of mouse macrophage cell line; Table 2 'Murine'. Format: cell-based. Details: Maximum cytokine response Murine: unit not given here. The settings on record: NR = no response. Here is the method: Compounds were also tested in a mouse macrophage cell line (FIG. 4B). RAW264.7 cells were subjected to increasing concentrations of the compounds and assessed for production of the cytokine TNFα.
As to `COc1cccc(C(=O)OC[C@H]2O[C@H](O[C@H]3O[C@H](COC(=O)c4cccc(OC)c4OC)[C@@H](O)[C@H](O)[C@H]3O)[C@H](O)[C@@H](O)[C@@H]2O)c1OC` [UM1013], the “Maximum cytokine response Murine” value is given as 3 and the “Minimal Effective Concentration Murine” value was found to be 37 µM.

Turning to `CCc1cc(CC)cc(C(=O)OCC2OC(OC3OC(COC(=O)c4cc(CC)cc(CC)c4)C(O)C(O)C3O)C(O)C(O)C2O)c1` (stereo not shown) [UM1017], the “Maximum cytokine response Murine” value is given as 2.5 and the “Minimal Effective Concentration Murine” value stood at 4.1 µM.

With `O=C(OC[C@H]1O[C@H](O[C@H]2O[C@H](COC(=O)c3ccccc3-c3ccccc3)[C@@H](O)[C@H](O)[C@H]2O)[C@H](O)[C@@H](O)[C@@H]1O)c1ccccc1-c1ccccc1` [UM1039], the “Maximum cytokine response Murine” value was 0.9 and the “Minimal Effective Concentration Murine” value was 33 µM.

Regarding `O=C(OC[C@H]1O[C@H](O[C@H]2O[C@H](COC(=O)c3cccc(-c4ccccc4)c3)[C@@H](O)[C@H](O)[C@H]2O)[C@H](O)[C@@H](O)[C@@H]1O)c1cccc(-c2ccccc2)c1` [UM1040], the “Maximum cytokine response Murine” value is reported as 0.9 and the “Minimal Effective Concentration Murine” value came out at 100 µM.

As to `COc1ccc(C(F)(F)F)cc1C(=O)OC[C@H]1O[C@H](O[C@H]2O[C@H](COC(=O)c3cc(C(F)(F)F)ccc3OC)[C@@H](O)[C@H](O)[C@H]2O)[C@H](O)[C@@H](O)[C@@H]1O` [UM1045], the “Maximum cytokine response Murine” value is 1.3 and the “Minimal Effective Concentration Murine” value is 0.05 µM.

Take `O=C(OC[C@H]1O[C@H](O[C@H]2O[C@H](COC(=O)c3cccc(-c4cccc(O)c4)c3)[C@@H](O)[C@H](O)[C@H]2O)[C@H](O)[C@@H](O)[C@@H]1O)c1cccc(-c2cccc(O)c2)c1` [UM1057]: the “Maximum cytokine response Murine” value was 1.8 and the “Minimal Effective Concentration Murine” value is 33 µM.

Turning to `Cc1ccc(-c2cccc(C(=O)OC[C@H]3O[C@H](O[C@H]4O[C@H](COC(=O)c5cccc(-c6ccc(C)cc6)c5)[C@@H](O)[C@H](O)[C@H]4O)[C@H](O)[C@@H](O)[C@@H]3O)c2)cc1` [UM1058], the “Maximum cytokine response Murine” value is recorded as 2.5 and the “Minimal Effective Concentration Murine” value came to 33 µM.

On to `COc1cc(-c2cccc(C(=O)OC[C@H]3O[C@H](O[C@H]4O[C@H](COC(=O)c5cccc(-c6ccc(F)c(OC)c6)c5)[C@@H](O)[C@H](O)[C@H]4O)[C@H](O)[C@@H](O)[C@@H]3O)c2)ccc1F` [UM1059], for which the “Maximum cytokine response Murine” value was 1.8 and the “Minimal Effective Concentration Murine” value was found to be 33 µM.

In the case of `O=C(OC[C@H]1O[C@H](O[C@H]2O[C@H](COC(=O)c3cc(O)cc(-c4ccccc4)c3)[C@@H](O)[C@H](O)[C@H]2O)[C@H](O)[C@@H](O)[C@@H]1O)c1cc(O)cc(-c2ccccc2)c1` [UM1061], the “Maximum cytokine response Murine” value is 3 and the “Minimal Effective Concentration Murine” value turned out to be 100 µM.

`O=C(OC[C@H]1O[C@H](O[C@H]2O[C@H](COC(=O)c3cccc(-c4ccccc4)c3O)[C@@H](O)[C@H](O)[C@H]2O)[C@H](O)[C@@H](O)[C@@H]1O)c1cccc(-c2ccccc2)c1O` [UM1063]: the “Maximum cytokine response Murine” value is on record as 2.5 and the “Minimal Effective Concentration Murine” value was found to be 100 µM.

On to `O=C(CCc1ccc(O)c(-c2ccccc2)c1)OC[C@H]1O[C@H](O[C@H]2O[C@H](COC(=O)CCc3ccc(O)c(-c4ccccc4)c3)[C@@H](O)[C@H](O)[C@H]2O)[C@H](O)[C@@H](O)[C@@H]1O` [UM1064], for which the “Maximum cytokine response Murine” value is given as 2.5 and the “Minimal Effective Concentration Murine” value was found to be 100 µM.

With `COc1ccc(C(=O)OC[C@H]2O[C@H](O[C@H]3O[C@H](COC(=O)c4ccc(OC)cc4C(F)(F)F)[C@@H](O)[C@H](O)[C@H]3O)[C@H](O)[C@@H](O)[C@@H]2O)c(C(F)(F)F)c1` [UM1067], the “Maximum cytokine response Murine” value worked out at 1.5 and the “Minimal Effective Concentration Murine” value came to 100 µM.

Take `CN(C)c1cccc(C(=O)OC[C@H]2O[C@H](O[C@H]3O[C@H](COC(=O)c4cccc(N(C)C)c4)[C@@H](O)[C@H](O)[C@H]3O)[C@H](O)[C@@H](O)[C@@H]2O)c1` [UM1076]: the “Maximum cytokine response Murine” value was determined as 1.3 and the “Minimal Effective Concentration Murine” value turned out to be 3.7 µM.

Take `CCOc1cc(OCC)cc(C(=O)NC[C@H]2O[C@H](O[C@H]3O[C@H](CNC(=O)c4cc(OCC)cc(OCC)c4)[C@@H](O)[C@H](O)[C@H]3O)[C@H](O)[C@@H](O)[C@@H]2O)c1` [UM1105]: the “Maximum cytokine response Murine” value was 11 and the “Minimal Effective Concentration Murine” value is 3 µM.

For `CC(C)(C)c1ccc(O)c(C(=O)NC[C@H]2O[C@H](O[C@H]3O[C@H](CNC(=O)c4cc(C(C)(C)C)ccc4O)[C@@H](O)[C@H](O)[C@H]3O)[C@H](O)[C@@H](O)[C@@H]2O)c1` [UM1106], the “Maximum cytokine response Murine” value came out at 11 and the “Minimal Effective Concentration Murine” value worked out at 3 µM.

With `Cc1cc(C)cc(C(=O)NC[C@H]2O[C@H](O[C@H]3O[C@H](CNC(=O)c4cc(C)cc(C)c4)[C@@H](O)[C@H](O)[C@H]3O)[C@H](O)[C@@H](O)[C@@H]2O)c1` [UM1108], the “Maximum cytokine response Murine” value is on record as 33 and the “Minimal Effective Concentration Murine” value came to 3 µM.

Take `CCc1cc(CC)cc(C(=O)NC[C@H]2O[C@H](O[C@H]3O[C@H](CNC(=O)c4cc(CC)cc(CC)c4)[C@@H](O)[C@H](O)[C@H]3O)[C@H](O)[C@@H](O)[C@@H]2O)c1` [UM1109]: the “Maximum cytokine response Murine” value came to 0.4 and the “Minimal Effective Concentration Murine” value is 3.2 µM.

As for `O=C(NC[C@H]1O[C@H](O[C@H]2O[C@H](CNC(=O)c3ccccc3C(F)(F)F)[C@@H](O)[C@H](O)[C@H]2O)[C@H](O)[C@@H](O)[C@@H]1O)c1ccccc1C(F)(F)F` [UM1112], the “Maximum cytokine response Murine” value was 2 and the “Minimal Effective Concentration Murine” value came to 100 µM.

`Cc1cc(C)c(C)c(C(=O)OC[C@H]2O[C@H](O[C@H]3O[C@H](COC(=O)c4c(C)c(C)cc(C)c4C)[C@@H](O)[C@H](O)[C@H]3O)[C@H](O)[C@@H](O)[C@@H]2O)c1C` [UM1113]: the “Maximum cytokine response Murine” value is reported as 11 and the “Minimal Effective Concentration Murine” value was found to be 2.5 µM.

Regarding `Cc1cccc(C)c1C(=O)OC[C@H]1O[C@H](O[C@H]2O[C@H](COC(=O)c3c(C)cccc3C)[C@@H](O)[C@H](O)[C@H]2O)[C@H](O)[C@@H](O)[C@@H]1O` [UM1114], the “Maximum cytokine response Murine” value is listed as 11 and the “Minimal Effective Concentration Murine” value was 2.5 µM.

For the compound `Cc1cc(C)c(C(=O)OC[C@H]2O[C@H](O[C@H]3O[C@H](COC(=O)c4c(C)cc(C)cc4C)[C@@H](O)[C@H](O)[C@H]3O)[C@H](O)[C@@H](O)[C@@H]2O)c(C)c1` [UM1115], the “Maximum cytokine response Murine” value came to 11 and the “Minimal Effective Concentration Murine” value came out at 3.3 µM.

Regarding `O=C(OC[C@H]1O[C@H](O[C@H]2O[C@H](CO)[C@@H](O)[C@H](O)[C@H]2O)[C@H](O)[C@@H](O)[C@@H]1O)c1ccc([N+](=O)[O-])cc1[N+](=O)[O-]` [UM1119], the “Maximum cytokine response Murine” value is listed as 11 and the “Minimal Effective Concentration Murine” value was found to be 2.2 µM.

In the case of `O=C(OC[C@H]1O[C@H](O[C@H]2O[C@H](CO)[C@@H](O)[C@H](O)[C@H]2O)[C@H](O)[C@@H](O)[C@@H]1O)c1ccccc1C(F)(F)F` [UM1121], the “Maximum cytokine response Murine” value came out at 11 and the “Minimal Effective Concentration Murine” value is 2.5 µM.
